US9295671B2, “Benzenesulfonamide derivatives of quinoxaline, pharmaceutical compositions thereof, and their use in methods for treating cancer” (NEUPHARMA, INC., priority 2011, dated 2016)
pIC50: −log10 of the molar value.

Legend:
[1] = system: A375 (human melanoma cell, BRAF V600E Mutant); experiment: Inhibition of cancer cell growth, MTT or MTS assay, A375; format: cell-based; conditions: A-375, 72 h, highest concentration 10 μM (Table 5)
Description: A375 (human melanoma cell, BRAF V600E Mutant), CHL-1 (human melanoma cell, BRAF wild type), SK-MEL-28 (human melanoma cell, BRAF V600E Mutant) and SK-MEL-31(human melanoma cell, Braf WT Mutant) were purchased from ATCC (American Type Culture Collection, Manassas, Va.). All cell lines were maintained in RPMI 1640 (Hyclone) or DMEM (Hyclone) supplemented with 10% fetal bovine serum (FBS, Hyclone), glutamine (2 mM, Hyclone), and antibiotics (penicillin 100 U/mL and streptomycin 50 μg/mL) at 37° C. in a humidified atmosphere of 5% CO2 in air.
To test IC50 of inhibition of individual compounds against each cell line, A375, SK-MEL-28and SK-MEL-31 cells were first plated in 96-well plates at densities of 3000 cells/well, and CHL-1 2500 cells/well. Cells were then incubated to allow cells to adhere and grow for 24 h. Cells were then treated with a series of concentrations of compounds for 72 h. The highest concentration of compounds was 10 μM for A375 and SK-MEL-28 cells and 100 μM for CHL-1 and SK-MEL-31 cells. Cells were then removed from the incubator and medium was removed by inverting and tapping the plates. 100 μL of MTT (0.5 mg/ml) or 10 μL or MTS was added to each well followed by an incubated at 37° C. for 4 h. Then MTT was removed and 200 μL of DMSO was added to each well, followed by reading the ODs at 570 nm after a 5 second shaking cycle in a 96-well spectrophotometer. For MTS method, MTS was not removed, and the incubated solutions were directly put in a 96-well spectrophotometer for the reading of the ODs at 492 nm.
IC50 was calculated by plotting the concentration of compound vs the percentage of inhibition in treated wells using GraphPad Prism 5. […] The scale utilized in Table 5 is as follows: +++ less than 500 nM; ++ between 500 nM and 1 μM; and + greater than 1 μM.

BRAF = target: T1, BRAF (Homo sapiens, UniProt P15056); experiment: LanthaScreen kinase assay, BRAF; format: biochemical; conditions: ATP 1 μM
T1 construct: purchased Invitrogen
T1 sequence (P15056 whole entry): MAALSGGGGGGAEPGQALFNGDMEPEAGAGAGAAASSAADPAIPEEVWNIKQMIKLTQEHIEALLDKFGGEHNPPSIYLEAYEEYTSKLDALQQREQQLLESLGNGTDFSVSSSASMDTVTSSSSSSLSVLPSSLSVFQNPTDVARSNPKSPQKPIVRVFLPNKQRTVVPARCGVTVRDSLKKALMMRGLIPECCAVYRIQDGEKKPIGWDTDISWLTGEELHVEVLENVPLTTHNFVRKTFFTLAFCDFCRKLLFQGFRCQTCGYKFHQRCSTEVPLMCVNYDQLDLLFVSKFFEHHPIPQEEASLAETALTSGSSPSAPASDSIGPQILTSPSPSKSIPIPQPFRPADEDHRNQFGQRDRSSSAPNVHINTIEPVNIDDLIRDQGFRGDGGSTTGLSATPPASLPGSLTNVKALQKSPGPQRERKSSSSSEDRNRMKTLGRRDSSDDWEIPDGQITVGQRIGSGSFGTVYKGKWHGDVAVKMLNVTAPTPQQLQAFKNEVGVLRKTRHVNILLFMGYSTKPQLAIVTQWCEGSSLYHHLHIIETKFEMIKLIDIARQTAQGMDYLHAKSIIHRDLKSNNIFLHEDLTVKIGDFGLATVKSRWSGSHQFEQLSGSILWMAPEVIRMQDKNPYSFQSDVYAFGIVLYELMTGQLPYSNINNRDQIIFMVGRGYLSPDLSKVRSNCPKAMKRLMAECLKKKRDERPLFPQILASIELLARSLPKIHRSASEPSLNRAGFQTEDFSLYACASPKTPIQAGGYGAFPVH
Description: (§1) The inhibitory activities of compounds against BRAF or BRAF V600E protein were measured using Invitrogne's LanthaScreen™ kinase assay which is based on fluorescein-labeled MAP2K1 as a substrate. The assay procedure is described as follows.
(§2) The scale utilized in Table 3 is as follows: ++++ less than 50 nM; +++ between 50 and 100 nM; ++ between 100 nM and 1 μM; and + greater than 1 μM.

BRAF V600E = target: T2, BRAF V600E (Homo sapiens, UniProt P15056, V600E); experiment: LanthaScreen kinase assay, BRAF V600E; format: biochemical; conditions: ATP 10 μM
T2 construct: purchased Invitrogen
T2 sequence (P15056 whole entry V600E): as the sequence (P15056 whole entry) above, with V600E counted along it
Description: as §1, §2

Row | SMILES | pIC50 [1] | pIC50 (BRAF) | pIC50 (BRAF V600E)
1 | CCCS(=O)(=O)Nc1cc(F)c(F)c(C(=O)c2ccc3ncc(-c4cn[nH]c4)nc3c2)c1F [Compound C27, N-(3-(3-(1H-pyrazol-4-yl)quinoxaline-6-carbonyl)-2,4,5-trifluorophenyl)propane-1-sulfonamide] | > 6.30 | > 7.30 | > 7.30
2 | CCCS(=O)(=O)Nc1cc(F)c(F)c(C(=O)c2ccc3ncc(-c4ccc(F)cc4)nc3c2)c1F [Compound C28, N-(2,4,5-trifluoro-3-(3-(4-fluorophenyl)quinoxaline-6-carbonyl)phenyl)propane-1-sulfonamide] | 6.00 to 6.30 | 6.00 to 7.00 | 7.00 to 7.30
3 | CCCS(=O)(=O)Nc1cc(F)c(F)c(C(=O)c2ccc3ncc(N4CCNCC4)nc3c2)c1F [Compound C24, N-(2,4,5-trifluoro-3-(3-(piperazin-1-yl)quinoxaline-6-carbonyl)phenyl)propane-1-sulfonamide] | > 6.30 | > 7.30 | > 7.30
4 | O=C(c1ccc2ncc(N3CCOCC3)nc2c1)c1c(F)c(F)cc(NS(=O)(=O)C2CC2)c1F [Compound C29, N-(2,4,5-trifluoro-3-(3-morpholinoquinoxaline-6-carbonyl)phenyl)cyclopropanesulfonamide] | > 6.30 | 6.00 to 7.00 | 6.00 to 7.00
5 | CCCS(=O)(=O)Nc1cc(F)c(F)c(C(=O)c2ccc3ncc(-n4cnc(C)c4)nc3c2)c1F [Compound C21, N-(2,4,5-trifluoro-3-(3-(4-methyl-1H-imidazol-1-yl)quinoxaline-6-carbonyl)phenyl)propane-1-sulfonamide] | > 6.30 | > 7.30 | > 7.30
6 | CCCS(=O)(=O)Nc1cc(F)c(F)c(C(=O)c2ccc3ncc(-c4ccncc4)nc3c2)c1F [Compound C33, N-(2,4,5-trifluoro-3-(3-(pyridin-4-yl)quinoxaline-6-carbonyl)phenyl)propane-1-sulfonamide] | > 6.30 | > 7.30 | > 7.30
7 | CCCS(=O)(=O)Nc1cc(F)c(F)c(C(=O)c2ccc3ncc(-n4ccnc4C)nc3c2)c1F [Compound C20, N-(2,4,5-trifluoro-3-(3-(2-methyl-1H-imidazol-1-yl)quinoxaline-6-carbonyl)phenyl)propane-1-sulfonamide] | > 6.30 | 7.00 to 7.30 | > 7.30
8 | CCCS(=O)(=O)Nc1cc(F)c(F)c(C(=O)c2ccc3ncc(-n4cncc4C)nc3c2)c1F [Compound C40, N-(2,4,5-trifluoro-3-(3-(5-methyl-1H-imidazol-1-yl)quinoxaline-6-carbonyl)phenyl)propane-1-sulfonamide] | > 6.30 | 7.00 to 7.30 | > 7.30
9 | CCCS(=O)(=O)Nc1cc(F)c(F)c(C(=O)c2ccc3ncc(F)nc3c2)c1F [Compound C35, N-(2,4,5-trifluoro-3-(3-fluoroquinoxaline-6-carbonyl)phenyl)propane-1-sulfonamide] | < 6.00 | 7.00 to 7.30 | > 7.30
10 | CCCS(=O)(=O)Nc1cc(F)c(F)c(C(=O)c2ccc3ncc(-c4ccc(C)nc4)nc3c2)c1F [Compound C34, N-(2,4,5-trifluoro-3-(3-(6-methylpyridin-3-yl)quinoxaline-6-carbonyl)phenyl)propane-1-sulfonamide] | > 6.30 | > 7.30 | > 7.30
11 | CCCS(=O)(=O)Nc1cc(F)c(F)c(C(=O)c2ccc3ncc(C#N)nc3c2)c1F [Compound C36, N-(3-(3-cyanoquinoxaline-6-carbonyl)-2,4,5-trifluorophenyl)propane-1-sulfonamide] | 6.00 to 6.30 | 7.00 to 7.30 | > 7.30
12 | CCCS(=O)(=O)Nc1cc(F)c(F)c(C(=O)c2ccc3ncc(OCCOC)nc3c2)c1F [Compound C22, N-(2,4,5-trifluoro-3-(3-(2-methoxyethoxy)quinoxaline-6-carbonyl)phenyl)propane-1-sulfonamide] | > 6.30 | 7.00 to 7.30 | 7.00 to 7.30
13 | CCCS(=O)(=O)Nc1cc(F)c(F)c(C(=O)c2ccc3ncc(-c4ccccc4)nc3c2)c1F [Compound C26, N-(2,4,5-trifluoro-3-(3-phenylquinoxaline-6-carbonyl)phenyl)propane-1-sulfonamide] | 6.00 to 6.30 | 6.00 to 7.00 | > 7.30
14 | CCCS(=O)(=O)Nc1cc(F)c(F)c(C(=O)c2ccc3ncc(C)nc3c2)c1F [Compound C19, N-(2,4,5-trifluoro-3-(3-methylquinoxaline-6-carbonyl)phenyl)propane-1-sulfonamide] | < 6.00 | 6.00 to 7.00 | 6.00 to 7.00
15 | CCCS(=O)(=O)Nc1cc(F)c(F)c(C(=O)c2ccc3ncc(-c4cccnc4)nc3c2)c1F [Compound C30, N-(2,4,5-trifluoro-3-(3-(pyridin-3-yl)quinoxaline-6-carbonyl)phenyl)propane-1-sulfonamide] | > 6.30 | > 7.30 | > 7.30
16 | CCCS(=O)(=O)Nc1cc(F)c(F)c(C(=O)c2ccc3ncc(-n4ccnc4)nc3c2)c1F [Compound C23, N-(3-(3-(1H-imidazol-1-yl)quinoxaline-6-carbonyl)-2,4,5-trifluorophenyl)propane-1-sulfonamide] | > 6.30 | > 7.30 | > 7.30
17 | CCCS(=O)(=O)Nc1ccc(F)c(C(=O)c2ccc3ncc(N4CCOCC4)nc3c2)c1Cl [Compound C41, N-(2-chloro-4-fluoro-3-(3-morpholinoquinoxaline-6-carbonyl)phenyl)propane-1-sulfonamide] |  | < 6.00 | < 6.00
18 | CCCS(=O)(=O)Nc1ccc(F)c(C(=O)c2ccc3ncc(N4CCOCC4)nc3c2)c1F [Compound C38, N-(2,4-difluoro-3-(3-morpholinoquinoxaline-6-carbonyl)phenyl)propane-1-sulfonamide] | > 6.30 | 6.00 to 7.00 | 6.00 to 7.00
